One may read the IC50 as the concentration that gives 50% inhibition. Usually Kd stands for the concentration at which binding is half-saturated.

For one assay, the target named is T1, 5-LOX (Homo sapiens, UniProt P09917).
T1 construct: the endogenous LOXs were captured on an anti‐LOX antibody precoated 96‐well plate; endogenous in cells; host or cells: A549 cell lysate
T1 sequence (P09917 1-674): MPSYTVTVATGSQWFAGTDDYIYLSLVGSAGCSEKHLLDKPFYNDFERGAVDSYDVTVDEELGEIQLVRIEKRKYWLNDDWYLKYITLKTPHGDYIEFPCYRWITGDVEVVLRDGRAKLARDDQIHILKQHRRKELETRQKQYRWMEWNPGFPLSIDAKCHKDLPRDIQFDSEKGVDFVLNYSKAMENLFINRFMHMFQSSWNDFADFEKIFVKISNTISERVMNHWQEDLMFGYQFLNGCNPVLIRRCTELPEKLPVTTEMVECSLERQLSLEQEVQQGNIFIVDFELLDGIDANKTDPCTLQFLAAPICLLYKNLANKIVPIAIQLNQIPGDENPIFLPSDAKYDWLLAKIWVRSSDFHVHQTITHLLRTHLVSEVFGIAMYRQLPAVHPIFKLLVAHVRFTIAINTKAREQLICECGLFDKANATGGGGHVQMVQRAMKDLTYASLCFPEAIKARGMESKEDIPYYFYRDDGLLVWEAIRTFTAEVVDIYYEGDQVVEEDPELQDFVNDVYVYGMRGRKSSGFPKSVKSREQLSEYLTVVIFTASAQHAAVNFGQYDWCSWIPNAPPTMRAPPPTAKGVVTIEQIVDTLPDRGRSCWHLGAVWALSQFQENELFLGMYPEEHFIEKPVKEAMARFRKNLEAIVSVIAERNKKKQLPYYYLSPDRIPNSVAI
The assay is described as follows: ABP-based ELISA assay with A549 cell lysate, 5-LOX. Type of assay: biochemical. As to the method:
(§1) A549 cell lysate was treated with a serial dilution of the respective inhibitor. Subsequently, samples were labeled by treatment with 1 μM of Labelox B for 1 min. […] Data are mean±s.d., n≥3 independent experiments. […]
(§2) 1.6. Immunoblotting Analysis […]
(§3) 1.7. ABPP-based LOX inhibitor specificity validation
(§4) A549 cells were lysed by RIPA buffer supplemented with 1x PIC. After sonication and centrifugation, the supernatant was collected, and the protein concentration was determined by a Pierce BCA Protein Assay Kit (Thermo Fisher Scientific, USA). The lysates were then diluted with PBS to 300 ng/µl and stored in -20°C. To label endogenous LOXs with Labelox B under the competition condition, 180 µl diluted lysates were incubated with 200 µl different LOX inhibitor solution (in PBS) with desired concentrations for 18 min to inhibit LOXs activity. Later, 20 µl of a 20 µM Labelox B (in PBS) was added and incubated shortly for 2 min, followed by adding 50 µl of a 0.5 M EDTA to stop the labeling reaction. The reaction mixture was 450 µl in total. Inhibitors and Labelox B were absent in positive and […]
(§5) negative control, respectively. To detect the competition labeling of Labelox B among different LOXs, a high-binding 96-well plate (Greiner, #M4561) was coated with 5-LOX (#ab169755, Abcam), 12-LOX […]
(§6) (1:500 dilution in PBS) for overnight at 4°C. After washing triply with 0.05%PBST, the plate was blocked with 2% (w/v) BSA in PBST. Subsequently, 100 µl of each reaction mixture was added to the LOX-antibody-coated wells. There are four LOX antibodies used for coating. Therefore, in total, 400 µl mixture is needed for each reaction. After one hour of incubation, LOXs were pulled down by antibodies accordingly. Next, 100 µl of HRP-conjugated streptavidin (1:2000 dilution in PBS, Thermo Fisher Scientific, USA) was added to each well to detect the D04 labeled LOXs among precipitated LOXs. After washing with PBST, 100 µl of mixed HRP substrate reagent (R&D Systems, Minneapolis, USA) was added, and the colorizing reaction was stopped by adding 100 µl of 1M sulfuric acid. The absorbance at […]
A general note: An ELISA detects its analyte on a solid surface through an enzyme-linked reagent.

The target of a further assay is T2, 12-LOX (Homo sapiens, UniProt P18054).
T2 construct: the endogenous LOXs were captured on an anti‐LOX antibody precoated 96‐well plate; endogenous in cells; host or cells: A549 cell lysate
T2 sequence (P18054 1-663): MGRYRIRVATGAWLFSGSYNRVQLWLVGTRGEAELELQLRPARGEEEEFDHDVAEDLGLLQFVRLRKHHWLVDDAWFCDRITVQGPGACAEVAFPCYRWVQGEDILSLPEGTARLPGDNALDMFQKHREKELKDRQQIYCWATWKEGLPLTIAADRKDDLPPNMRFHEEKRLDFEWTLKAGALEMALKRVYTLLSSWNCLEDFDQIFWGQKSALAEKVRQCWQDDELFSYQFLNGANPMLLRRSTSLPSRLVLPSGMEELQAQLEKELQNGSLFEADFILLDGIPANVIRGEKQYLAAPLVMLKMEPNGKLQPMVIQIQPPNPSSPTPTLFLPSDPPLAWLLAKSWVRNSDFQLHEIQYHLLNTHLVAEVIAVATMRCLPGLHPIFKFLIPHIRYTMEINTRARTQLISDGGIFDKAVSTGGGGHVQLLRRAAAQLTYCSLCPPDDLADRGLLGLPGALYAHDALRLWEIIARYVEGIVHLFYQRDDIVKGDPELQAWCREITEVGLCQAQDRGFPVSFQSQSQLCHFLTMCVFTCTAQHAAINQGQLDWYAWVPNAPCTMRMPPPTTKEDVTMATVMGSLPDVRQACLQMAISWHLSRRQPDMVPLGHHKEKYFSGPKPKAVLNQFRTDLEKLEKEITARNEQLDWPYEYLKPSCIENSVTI
As to the kind of experiment: ABP-based ELISA assay with A549 cell lysate, 12-LOX. Type of assay: biochemical. As to the method: as §1, §2, §3, §4, §5, §6

A further assay concerns the target T3, 15-LOX-1 (Homo sapiens, UniProt P16050).
T3 sequence (P16050 1-662): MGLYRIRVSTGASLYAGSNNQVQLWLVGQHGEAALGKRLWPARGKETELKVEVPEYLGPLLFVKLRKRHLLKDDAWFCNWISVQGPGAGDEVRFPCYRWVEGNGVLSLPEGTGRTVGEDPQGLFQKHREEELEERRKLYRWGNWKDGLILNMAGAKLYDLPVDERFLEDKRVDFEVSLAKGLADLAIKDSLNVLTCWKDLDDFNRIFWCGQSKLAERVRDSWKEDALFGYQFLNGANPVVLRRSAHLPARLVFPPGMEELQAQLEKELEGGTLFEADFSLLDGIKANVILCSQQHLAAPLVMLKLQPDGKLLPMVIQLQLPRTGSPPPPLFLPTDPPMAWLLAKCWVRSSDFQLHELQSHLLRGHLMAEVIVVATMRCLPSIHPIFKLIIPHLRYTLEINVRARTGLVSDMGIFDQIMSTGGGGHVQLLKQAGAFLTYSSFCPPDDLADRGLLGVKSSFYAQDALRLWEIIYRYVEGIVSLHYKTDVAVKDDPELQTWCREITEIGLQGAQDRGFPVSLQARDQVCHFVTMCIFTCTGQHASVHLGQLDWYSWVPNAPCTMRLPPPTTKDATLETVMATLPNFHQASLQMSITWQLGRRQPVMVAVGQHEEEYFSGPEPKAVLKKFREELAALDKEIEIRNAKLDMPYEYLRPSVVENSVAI
As to the kind of experiment: ABP-based ELISA assay with A549 cell lysate, 15-LOX-1. Type of assay: biochemical. More on the design: the endogenous LOXs were captured on an anti‐LOX antibody precoated 96‐well plate; endogenous in cells; host or cells: A549 cell lysate. Here is the method:
as §1, §2, §3, §4, §5, §6

For a further assay, the target named is H3K4Ac peptide. The assay is described as follows: ELISA; ELISA formatted binding study between histone H3 peptides and 15‐LOX‐1; concentrations up to 20 μM; Hill‐slopes equal 1; not told which partner was immobilised.
The target in the next assay is H3K56Ac peptide. Described as above.

Regarding `CC(c1cc2ccccc2s1)N(O)C(N)=O` (stereo not drawn) [Zileuton], the “HillSlope Value” on 5-LOX is -0.48; on 12-LOX it was -0.47. It took 554 µM to reach half-maximal inhibition against 12-LOX (1 μM Labelox B) (IC50). Moreover, the “Effect on ABP labeling” value on 15-LOX-1 is recorded as “little or no effect”.

Take “recombinant 15‐LOX‐1 (from UniProt P16050 1-662) (enzyme)”: the dissociation constant (Kd) with H3K4Ac peptide is more than 20 µM; in the assay with H3K56Ac peptide, 1650 nM.

For the origin of these results see PMC8518382, “Identification of a Bromodomain‐like Region in 15‐Lipoxygenase‐1 Explains Its Nuclear Localization” (Angewandte Chemie (International Ed. in English), 2021).
